From patent US8288378B2, “Phosphoinositide modulation for the treatment of neurodegenerative diseases” (The Trustees of Columbia University in the City of New York, priority 2006, dated 2012)
pEC50: −log10 of the molar value.

Experiments:
PC12 cells = assay: PIP2 sensor GFP-PHPLCδ1 plasma membrane/cytosol localization; assay type: cell-based; conditions: for GFP-PHPLCδ1 probe localization: oAβ42, 2 μM ionomycin, Aβ42Rev
Description: Confocal microscopy. […] Cells have been analyzed after being treated for different time lengths: 0, 10 minutes, 30 minutes and 120 minutes. Cells were washed in phosphate buffer and fixed with 4 percent paraformaldehyde. Confocal z-stack images (0.5 μm) of PC12 cells were obtained using Nikon EZ-C1.2.30 confocal microscope, (×100) oil immersion objective. Quantification of GFP intensity was calculated using the ImageJ software: for each cell in a given image, a line intensity profile across the cell was obtained. The relative decrease in plasma membrane localization was calculated as the ratio between the plasma membrane fluorescence intensity and the average cytosolic fluorescence intensity. The average of the ratio was reported in the graph.
PC12 cells were cultured in RPMI media supplemented with 1 mM glutamine, 5% FBS, 10% horse serum and penicillin, streptomycin. The day before transfection, PC12 cells were split 50% and plated on poly-D-lysine coated coverslips. Cells were transfected with Lipofectamine 2000 as per the manufacturer's protocol with GFP-PHPLCδ1. After 16-24 hours, cells were treated as indicated for 30 minutes in conditioned media. Cells were then briefly washed in PBS and fixed for 20 minutes in 4% paraformaldehyde. Cells were then washed in 0.1M glycine and twice in PBS for 5 minutes each. Cells were mounted using Vectashield. Images were collected using a con-focal microscope and the plot profile was analyzed with ImageJ 1.37v. The ratio of the fluorescence profiles of the plasma membrane and the cytosol were calculated and deemed to represent translocation of the PIP2 probe GFP-PH-PLCδ1 (72).

[1] = test system: N2a cells stably expressing human APP with the Swedish mutation; assay: Aβ42/Aβ40 production in N2a cells stably expressing human APP with the Swedish mutation; assay type: cell-based; conditions: 6 hours treatment, read-out: EC50, inhibition of production of Aβ42 as well as Aβ40
Description: N2a cells stably expressing human APP with the Swedish mutation were grown in DMEM-supplemented with 50% Opti-MEM, 10% FBS, penicillin, streptomycin, and G418. Cells were grown to 80-90% confluence and treated for 6 hours with the drugs as indicated in 900 μl media. The conditioned media was harvested and centrifuged for 15 minutes at 14,000 rpm in a table top Eppendorf centrifuge 5417R. The adherent cells were washed two times with ice cold PBS and lysed in 100 μl super IP buffer (10 mM Tris Cl, pH, 7.4, 150 mM NaCl, 2 mM EDTA, 1% Triton X-100, 0.25% NP-40, protease inhibitors). Cell lysates were scraped and incubated for 15 minutes on ice before centrifugation at 14,000 rpm in a table-top Eppendorf centrifuge 5417R. Cleared conditioned media and lysates were stored at −80° C. until use. Aβ 42 and Aβ40 were quantified with the commercially available kit from Biosource as indicated in the protocol. Protein concentration of the cell lysate was determined using the BCA assay from Pierce.
KU-55933 is a small molecule inhibitor of ATM kinase as well as PI3K family members (FIG. 22). […] Aβ 42 and Aβ40 were quantified with the commercially available kit from Biosource as indicated in the protocol. Protein concentration of the cell lysate was determined using the BCA assay from Pierce.

[2] = test system: N2a cells stably expressing APP harboring the Swedish mutation; assay: Caspase 3 cleavage Western blot; assay type: cell-based; conditions: 6 hours; concentrations which decreased Aβ42 generation
Description: Western blot analysis of full length APP and caspase3 was conducted on 30 μg of lysate collected as described above from N2a cells stably expressing APP harboring the Swedish mutation. Cells were treated for 6 hours with KU-55933 at concentrations indicated. APP was detected using the LN27 antibody from Zymed and caspase 3 full length and cleavage product were probed using the caspase 3 antibody from Cell Signaling Technology.

[3] = previous studies (refs 113, 114); cited from earlier work
mouse cortical neurons = assay: Phosphoinositide / anionic phospholipid levels in cultured cortical neurons (HPLC with suppressed conductivity); conditions: for PIP2 levels after Ca2+ ionophore: 2 μM; for effect of Ca2+ chelation on oAβ42-induced PIP2 decrease: oAβ42 for 60 min, EGTA 2 mM
Description: HPLC Lipid Analysis. Cells grown in 15-cm^2 dishes were scraped in 0.75 ml ice-cold MeOH: 1M HCl (1:1) supplemented with 2 mM AlCl3. Lipids were then extracted and deacylated by incubation with 0.5 ml methylamine reagent (MeOH:40% methylamine in water:n-butanol:water 47:36:9:8) at 50° C. for 45 min. The aqueous phase was dried, resuspended in 0.5 ml of n-butanol: petroleum ether:ethyl formate (20:40:1), and extracted twice with an equal volume of water. Aqueous extracts were dried, resuspended in water, and subjected to anion-exchange HPLC on an Tonpac AS11-HC column (Dionex). Negatively charged glycerol head groups were eluted with a 1.5-86 mM KOH gradient and detected online by suppressed conductivity 75 in a Dionex Ion Chromatography system equipped with an ASRS-ultra II self-regenerating suppressor. Individual peaks were identified and peak areas were calculated using the Chromeleon software (Dionex). Using deacylated anionic phospholipids as standards, lipid masses were calculated and expressed as molar fractions of total anionic phospholipids present in the sample (see Ref. 69).
2-week-old, cultured mouse cortical neurons were incubated with three different Aβ42 preparations (monomers, soluble oligomers, and fibrils) at concentrations of 200 nM. The levels of PIP2 were measured by conductance-based HPLC quantitation.
This preparation contains a mixture of monomers, trimers and tetramers as well as traces of dimers and high molecular weight oligomers, as described previously. Potential effects of this preparation were investigated either after an acute (0-120 min) or a subchronic treatment (72 h). The levels of phosphoinositides as well as a variety of other anionic phospholipids were measured and quantified in neuronal extracts using HPLC combined with suppressed conductivity detection (69, 71).
Cell culture. […] Primary cultures from cortical neurons were generated from newborn mice as described (126). Briefly, cortices were dissected out, trypsinized for 45 minutes, and then dissociated with a Pasteur pipette and plated on poly-ornithine coated 10 mm dishes at a density of 25,000 cells/cm^2 in Neurobasal-A medium containing 1 mM kyneurenic acid to reduce enhanced synaptic transmission due to the high density of the cultures.
Lipid measurements. Cultures were scrapped on a methanol:1N HCl 1:1 buffer supplemented with 2 mM AlCl3. Ice-cold chloroform (0.4 ml) was then added, and samples were vortexed for 1 min. The solvent phase was washed with 1 ml. methanol:2 mM oxalic acid (1:0.9 vol/vol) and dried under a flow of nitrogen.

[4] = test system: CA1 region of the hippocampus; assay: Long-term potentiation in adult hippocampal slices (CA1, tetanic stimulation of Schaeffer collateral pathway); design: species or system mouse
Source text: Long-term potentiation (LTP) was induced in the CA1 region of the hippocampus through tetanic stimulation of the Schaeffer collateral pathway.

PI4KIIα = target: T1, PI4KIIα (Homo sapiens, UniProt Q9BTU6); assay: PI4KIIα lipid kinase activity assay with TLC analysis; assay type: biochemical
T1 construct: made in house
T1 sequence (Q9BTU6 whole entry): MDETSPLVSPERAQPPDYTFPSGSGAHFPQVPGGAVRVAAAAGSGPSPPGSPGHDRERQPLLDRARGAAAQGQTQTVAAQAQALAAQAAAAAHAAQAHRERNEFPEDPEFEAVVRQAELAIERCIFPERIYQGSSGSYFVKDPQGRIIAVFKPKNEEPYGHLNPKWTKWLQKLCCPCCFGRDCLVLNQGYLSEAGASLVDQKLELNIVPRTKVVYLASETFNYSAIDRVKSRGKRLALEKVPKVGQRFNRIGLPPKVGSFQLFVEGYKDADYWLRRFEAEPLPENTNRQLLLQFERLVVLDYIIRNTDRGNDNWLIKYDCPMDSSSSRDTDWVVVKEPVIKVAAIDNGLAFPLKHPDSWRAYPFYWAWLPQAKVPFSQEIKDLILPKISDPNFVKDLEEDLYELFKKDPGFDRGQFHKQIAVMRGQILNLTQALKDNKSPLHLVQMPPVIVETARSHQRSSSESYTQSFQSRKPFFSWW
Description: Lipid kinase assay and thin layer chromatography. In vitro lipid phosphorylation assays on post-nuclear supernatant of HEK293, Neuro2a or CHO cells expressing either WT or FAD mutant PS1 and PS2, were carried out as previously described (70). Briefly, 100 μg protein from the supernatant were mixed with 2.5 μl ATP (final: 50 μM), 2.5 μl CaCl2 (final: 50 μM), 27.0 μl EGTA-free kinase buffer (25 mM Hepes, 100 mM KC1, 2.5 mM MgCl2) and 0.5 μl gamma ATP (final 100 nCi/μl) and samples incubated at 37° C. for 15 min. Reaction products were extracted and analyzed by thin layer chromatography (TLC) silica plate (solvent: 64—acetone 30—methanol 24—acetic acid 32—water 14 (v/v)) and visualized by autoradiography.
Mammalian expression of a construct encoding either wild-type (IIα) or the kinase-dead mutant (IIα-KD) forms of PI4KIIα (HA-tagged) were transfected into CHO cells. The enzyme was immuno-isolated using anti-HA affinity beads from cell extracts. The purified PI4KIIα proteins were subjected to a lipid kinase activity assay and TLC analysis using PI as a substrate (FIG. 10C). PI4KIIα, but not the kinase-dead mutant, enhanced the incorporation of [γ32P]-ATP into PIP (FIG. 10C,D).

PIPK1γ = target: T2, PIPK1γ (Homo sapiens, UniProt O60331); assay: PIPK1γ activity assay; assay type: biochemical; conditions: 50 μM
T2 construct: GST
T2 sequence (O60331 whole entry): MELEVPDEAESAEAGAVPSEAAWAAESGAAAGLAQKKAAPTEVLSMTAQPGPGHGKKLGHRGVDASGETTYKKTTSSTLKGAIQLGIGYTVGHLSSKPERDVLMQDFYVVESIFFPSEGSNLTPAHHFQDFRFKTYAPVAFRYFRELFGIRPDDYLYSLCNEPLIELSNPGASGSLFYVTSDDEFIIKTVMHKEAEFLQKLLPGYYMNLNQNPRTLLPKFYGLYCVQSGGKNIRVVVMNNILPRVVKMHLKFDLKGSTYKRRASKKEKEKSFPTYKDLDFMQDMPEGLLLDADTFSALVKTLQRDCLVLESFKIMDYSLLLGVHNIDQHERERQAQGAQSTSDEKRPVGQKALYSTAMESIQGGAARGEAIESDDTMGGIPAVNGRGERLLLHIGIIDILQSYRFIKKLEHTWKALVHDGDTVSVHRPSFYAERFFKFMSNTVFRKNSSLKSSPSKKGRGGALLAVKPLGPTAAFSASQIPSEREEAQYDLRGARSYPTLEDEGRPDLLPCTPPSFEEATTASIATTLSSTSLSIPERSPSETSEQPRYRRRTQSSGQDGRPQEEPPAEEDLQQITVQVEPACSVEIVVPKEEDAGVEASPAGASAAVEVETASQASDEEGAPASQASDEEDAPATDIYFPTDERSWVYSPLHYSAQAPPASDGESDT
Source text: Thus, (20S)Rg3 serves as an activator of PI4KIIα, resulting in the increase in the steady-state levels of PIP and subsequently the levels of PIP2.

Aβ42 = target: T3, Aβ42 (Homo sapiens, UniProt P05067); assay: Oligomerization process of Aβ42
T3 construct: Synthetic Aβ (1-42) peptide was purchased from American Peptide; purchased American Peptide (Sunnyvale, Calif.); host or cells: synthetic peptide
T3 sequence (P05067 672-713 limits assumed): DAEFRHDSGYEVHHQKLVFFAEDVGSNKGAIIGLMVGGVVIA

APP/PS1 mice = assay: Radial-arm water-maze in APP/PS1 mice; assay type: in vivo, mouse; conditions: i.p., 10 mg/kg, three weeks, 3 month-old APP/PS1 mice
Description: Therefore experiments were performed to determine whether (20S)Rg3 can improve the memory impairments in an AD mouse model. (20S)Rg3 was administered for three weeks (i.p., 10 mg/kg) to 3 month-old APP/PS1 mice and age-matched littermate controls. Mice were then subjected to behavioral testing in the radial-arm water-maze paradigm (74).

[5] = test system: PI4KIIα-overexpressing cells; assay: Aβ42 levels in PI4KIIα-overexpressing cells; assay type: cell-based
Description: Since (20S)Rg3 potentiates PI4KIIα activity (conversion from PI to PIP), it was determined whether the increase in PI4KIIα activity exerts similar effects on Aβ42 generation as observed in the (20S)Rg3-treated cells. Overexpression of PI4KIIα leads to increased protein levels of PI4KIIα and increased PI 4-kinase activity as measured by lipid kinase assay. […] Thus, increased levels of the (20S)Rg3 target protein PI4KIIα may amplify the effects of the Aβ42-lowering activity of (20S)Rg3.

[6] = test system: PI4KIIα +/− ES-derived neurons; assay: Aβ42 generation and PIP synthesis in PI4KIIα +/− ES cell-derived pyramidal neurons; assay type: cell-based, mouse
Source text: Mouse embryonic stem (ES) cell-derived pyramidal neurons that harbor the heterozygote knockout of the PI4KIIα allele (PI4KIIα +/−; purchased from Sanger Institute Gene Trap Resource; http://www.sanger.ac.uk/PostGenomics/genetrap/) were then used to further study the role for PI4KIIα in Aβ42 generation in neurons. Differentiation and morphology of pyramidal neurons from PI4KIIα heterozygote (+/−) ES cells were indistinguishable from those from match wild-type ES cells (representative neuronal staining is shown in FIGS. 14A and B). […] Aβ42 generation was substantially elevated in the neurons derived from PI4KIIα +/−ES cells.

HeLa cells = assay: Lipid raft fractionation and Western blot of PS1 C-terminal fragments; assay type: cell-based

For `O=c1cc(-c2cccc3c2Sc2ccccc2S3)oc(N2CCOCC2)c1` [KU-55933], the “depletion of PIP2 caused by Aβ42 oligomers” value (PC12 cells; 30 minutes, concentration comparable to EC50 for Aβ42) was “rescued the depletion of PIP2”, the pEC50 [1] was 5.46 and the “caspase 3 cleavage” value [2] was “did not induce caspase 3 cleavage”. The cytotoxicity [3] was “found not to be cytotoxic”.

For `C[C@H](CCC(=O)O)C[C@H](C)C[C@H](C)C(=O)/C=C(\O)[C@H](C)C[C@H](C)C/C=C/[C@@H](C)[C@@H](O)[C@@H](C)[C@@H](O)C[C@@H]1CC[C@@](C)([C@H]2CC[C@@](C)([C@@H](C)O)O2)O1` [ionomycin], the GFP-PHPLCδ1 probe localization (PC12 cells) was “mimicked” and the “PIP2 levels after Ca2+ ionophore” value (mouse cortical neurons) was “caused PIP2 levels to decrease”.

For “oAβ42: crude oligomer preparation made from synthetic Aβ42 peptides”, the “effect on LTP” value ([4]; control (Synj1+/+) slices) was “partially impaired LTP”, the GFP-PHPLCδ1 probe localization (PC12 cells) was “significant disappearance of the probe from the plasma membrane” and the ATP levels (mouse cortical neurons; 200 nM) was “normal”. The “effect on PA levels” value (mouse cortical neurons; 200 nM, 2-week-old cultured mouse cortical neurons) was “up-regulated”, the “number of apoptotic nuclei” value (mouse cortical neurons; 3-day treatment, versus vehicle) was “comparable or slightly less” and the amount of pyknosis (mouse cortical neurons; 3-day treatment, versus vehicle-treated neurons) was “undistinguishable from that occurring in vehicle-treated neurons”. The “levels of PtdA” value (mouse cortical neurons; crude oligomer preparation of synthetic Aβ42, after 120 min) was “approximately 130 % of control”.

In the case of `CC(=O)OCOC(=O)CN(CC(=O)OCOC(C)=O)c1ccccc1OCCOc1ccccc1N(CC(=O)OCOC(C)=O)CC(=O)OCOC(C)=O` [BAPTA-AM], the “effect of Ca2+ chelation on oAβ42-induced PIP2 decrease” value (mouse cortical neurons) was “blocked the action of oAβ42” and the “increase in the levels of PtdIns(4,5)P2” value (mouse cortical neurons; vehicle-treated and oAβ42-treated cortical neurons) was 2 fold.

For `COc1ccc2c(c1)CC[C@@H]1[C@@H]2CC[C@]2(C)[C@@H](NCCCCCCN3C(=O)C=CC3=O)CC[C@@H]12` [U73122], the “PIP2 levels on oAβ42 treatment in presence of PLC inhibitor” value (PC12 cells; oAβ42 60 min, inhibitor 0.5 μM) was “PIP2 levels remained unaffected by oAβ42”.

For `CNc1ccc2oc(C[C@H]3O[C@@]4(CC[C@H]3C)O[C@H]([C@H](C)C(=O)c3ccc[nH]3)[C@H](C)C[C@H]4C)nc2c1C(=O)O` [A23187], the “PIP2 levels after Ca2+ ionophore” value (mouse cortical neurons) was “caused PIP2 levels to decrease”.

With `O=C(O)CN(CCOCCOCCN(CC(=O)O)CC(=O)O)CC(=O)O` [EGTA] the “effect of Ca2+ chelation on oAβ42-induced PIP2 decrease” value (mouse cortical neurons) was “prevented oAβ42 from decreasing PIP2 levels”.

For `CC(C)=CCC[C@](C)(O)[C@H]1CC[C@]2(C)[C@@H]1[C@H](O)C[C@@H]1[C@@]3(C)CC[C@H](O[C@@H]4O[C@H](CO)[C@@H](O)[C@H](O)[C@H]4O[C@@H]4O[C@H](CO)[C@@H](O)[C@H](O)[C@H]4O)C(C)(C)[C@@H]3CC[C@]12C` [(20S)Rg3], the “LTP on co-incubation with Aβ oligomers” value ([4]; 10 μM) was “resulted in normal LTP”, the “Aβ oligomer-induced loss of plasma membrane fluorescence” value (PC12 cells; co-incubation with Aβ oligomers) was “prevented the loss of the plasma membrane fluorescence” and the PI4KIIα activity (PI4KIIα; 50 μM with purified enzyme) was “enhanced PI4KIIα activity in a dose-dependent manner”. For the same compound, the “PIP and PIP2 formation with both PI4KIIα and PIPK1γ” value (PI4KIIα; both enzymes incubated with compound) was “led to an increase of both PIP and PIP2”, the “activity of PIPK1γ” value (PIPK1γ) was “did not confer any detectable effects” and the “effect on oligomerization process of Aβ42” value (Aβ42) was “no effects on the oligomerization process of Aβ42”. The “spatial working memory deficits” value (APP/PS1 mice) was “dramatically improved spatial working memory deficits”, the Aβ42 reduction [5] was “conferred additive effects on Aβ42 reduction” and the “ability to reduce Aβ42” value ([6]; PI4KIIα +/− ES-derived neurons) was “no longer able to reduce Aβ42”. The “compound-induced PIP synthesis” value ([6]; PI4KIIα +/− clonal lines AC37 and AD14) was “substantially reduced”, the “lipid raft-associated PS1-CTF levels” value (HeLa cells; HeLa cells) was “significantly reduced” and the “total PS-CTF levels” value (HeLa cells; HeLa cells) was “unchanged”. The “steady-state levels of PIP and PIP2” value (mouse cortical neurons; 100 μM) was “increased steady-state levels of both PIP and PIP2”, the “Aβ42 oligomer-induced PIP2 reduction, pre-incubation” value (mouse cortical neurons; cells pre-incubated with compound) was “blocked efficiently” and the “oAβ42-induced increase in PA levels” value (mouse cortical neurons; cultured neurons) was “inhibited the increase in PA levels”. For the same compound, the “Aβ42 oligomer-induced reduction in PIP2 levels” value (mouse cortical neurons; treatment / co-treatment of cultured neurons) was “inhibited the reduction in PIP2 levels”.

With `CSc1ccc(/C=C2/C(C)=C(CC(=O)O)c3cc(F)ccc32)cc1` [sulindac sulfide] the “association of PS1 fragments with lipid rafts” value (HeLa cells) was “did not confer any effects”.
